Test [1] concerns the target T1, cloned human μ opioid receptor (Homo sapiens, UniProt P35372).
T1 construct: expressed in transfected cells; host or cells: CHO cells
Nature of the test: [3H]diprenorphine receptor binding, μ opioid receptor. To be noted: δ over μ. As to the method:
(§1) The potencies of the compounds of the Examples were determined by testing the ability of a range of concentrations of each compound to inhibit the binding of the non-selective opioid antagonist, [^3H]diprenorphine, to the cloned human μ, κ, and δ opioid receptors, expressed in separate cell lines. IC50 values were obtained by nonlinear analysis of the data using GraphPad Prism version 3.00 for Windows (GraphPad Software, San Diego). Ki values were obtained by Cheng-Prusoff corrections of IC50 values.
(§2) The receptor binding method (DeHaven and DeHaven-Hudkins, 1998) was a modification of the method of Raynor et al. (1994). […] The filters were rinsed 4 times with 1 mL of cold 50 mM Tris HCl, pH 7.8 and radioactivity remaining on the filters determined by scintillation spectroscopy. Nonspecific binding was determined by the minimum values of the titration curves and was confirmed by separate assay wells containing 10 μM naloxone. Ki values were determined by Cheng-Prusoff corrections of IC50 values derived from nonlinear regression fits of 12 point titration curves using GraphPad Prism® version 3.00 for Windows (GraphPad Software, San Diego, Calif.).
(§3) To determine the equilibrium dissociation constant for the inhibitors (Ki), radioligand bound (cpm) in the presence of various concentrations of test compounds was measured. […]

In test [2] the target is T2, cloned human δ opioid receptor (Homo sapiens, UniProt P41143).
T2 construct: expressed in transfected cells; host or cells: CHO cells
The experiment in a line: [3H]diprenorphine receptor binding, δ opioid receptor. How it is done: as §1, §2, §3

Test [3] deals with T2, cloned human δ opioid receptor. Nature of the test: Receptor-mediated [35S]GTPγS binding, δ opioid receptor. The test is classed as biochemical. As to the method: The potency and efficacy of compounds at each of the receptors are assessed by modifications of the methods of Selley et al., 1997 and Traynor and Nahorski, 1995 using receptor-mediated [^35S]GTPγS binding in the same membrane preparations used to measure receptor binding. Assays are carried out in 96-well FlashPlates® (Perkin Elmer Life Sciences, Inc, Boston, Mass.). Membranes prepared from CHO cells expressing the appropriate receptor (50-100 μg of protein) are added to assay mixtures containing agonist with or without antagonists, […] [^35S]GTPγS (approx. 100,000 dpm), 3.0 μM GDP, 75 mM NaCl, 15 mM MgCl2, 1.0 mM ethylene glycol-bis(β-aminoethyl ether)-N,N,N′,N′-tetracetic acid, 1.1 mM dithiothreitol, 10 μg/mL leupeptin, 10 μg/mL pepstatin A, 200 μg/mL bacitracin, and 0.5 μg/mL aprotinin in 50 mM Tris-HCl buffer, pH 7.8. After incubation at room temperature for one hour, the plates are sealed, centrifuged at 800×g in a swinging bucket rotor for 5 minutes and bound radioactivity determined with a TopCount microplate scintillation counter (Packard Instrument Co., Meriden, Conn.).
EC50 values for agonists are determined from nonlinear regression fits of 8- or 12-point titration curves to the 4-parameter equation for a sigmoidal dose-response with a slope factor of 1.0 using GraphPad Prism version 3.00 for Windows (GraphPad Software, San Diego, Calif.).

For test [4], the target named is T3, cloned human κ opioid receptor (Homo sapiens, UniProt P41145).
T3 construct: expressed in transfected cells; host or cells: CHO cells
The experiment in a line: [3H]diprenorphine receptor binding, κ opioid receptor. The note with it: δ over κ. How it is done: as §1, §2, §3

Where a SMILES comes first, the peptide text is derived from it. [ ]: non-standard residue; d: D form. Phe(4-CONH2) = NC(=O)c1ccc(C[C@H](N)C(=O)O)cc1

By Ki is commonly meant a dissociation constant, usually derived from enzyme kinetics or from competition with a known ligand. Read a low Ki as higher affinity. For orientation: EC50 means the concentration needed to bring the measured effect to its halfway point. Low values mean an effect from little substance, high ones a need for much substance.

T2 sequence (P41143 whole entry): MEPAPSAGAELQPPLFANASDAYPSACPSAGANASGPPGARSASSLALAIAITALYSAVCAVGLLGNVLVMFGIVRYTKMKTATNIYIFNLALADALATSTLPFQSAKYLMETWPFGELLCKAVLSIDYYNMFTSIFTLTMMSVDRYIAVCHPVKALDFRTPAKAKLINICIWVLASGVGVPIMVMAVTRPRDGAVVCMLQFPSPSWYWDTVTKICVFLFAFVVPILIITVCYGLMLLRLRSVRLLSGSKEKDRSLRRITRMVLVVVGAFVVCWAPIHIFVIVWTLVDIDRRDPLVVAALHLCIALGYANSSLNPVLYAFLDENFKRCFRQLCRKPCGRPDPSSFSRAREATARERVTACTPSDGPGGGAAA
T3 sequence (P41145 whole entry): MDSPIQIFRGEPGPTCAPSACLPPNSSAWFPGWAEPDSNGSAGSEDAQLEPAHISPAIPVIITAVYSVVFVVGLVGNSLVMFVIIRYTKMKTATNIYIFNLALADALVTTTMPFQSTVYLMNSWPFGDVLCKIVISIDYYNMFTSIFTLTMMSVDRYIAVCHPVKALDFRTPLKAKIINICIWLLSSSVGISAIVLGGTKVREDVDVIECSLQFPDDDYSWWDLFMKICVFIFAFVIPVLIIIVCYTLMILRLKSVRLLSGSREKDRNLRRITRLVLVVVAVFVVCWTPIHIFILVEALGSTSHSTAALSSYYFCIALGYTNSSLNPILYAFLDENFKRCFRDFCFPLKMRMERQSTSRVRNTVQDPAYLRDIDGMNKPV
T1 sequence (P35372 whole entry): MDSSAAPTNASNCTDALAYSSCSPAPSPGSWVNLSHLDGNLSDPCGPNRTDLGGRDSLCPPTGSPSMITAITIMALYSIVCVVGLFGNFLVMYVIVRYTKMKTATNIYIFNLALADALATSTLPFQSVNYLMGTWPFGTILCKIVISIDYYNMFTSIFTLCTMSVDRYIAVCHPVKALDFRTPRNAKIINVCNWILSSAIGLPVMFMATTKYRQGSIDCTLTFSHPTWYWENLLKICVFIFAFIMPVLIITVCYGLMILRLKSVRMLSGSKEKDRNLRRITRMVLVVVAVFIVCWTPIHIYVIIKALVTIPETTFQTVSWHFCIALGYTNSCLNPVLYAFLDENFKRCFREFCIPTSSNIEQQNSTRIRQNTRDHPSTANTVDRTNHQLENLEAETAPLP

For the molecule `CC(C)C[C@H](NC(=O)[C@H](Cc1ccccc1)NC(=O)CNC(=O)CNC(=O)[C@@H](N)Cc1ccc(C(N)=O)cc1)C(N)=O` [Example 1, H-Cpa-Gly-Gly-Phe-Leu-NH2] (H-[Phe(4-CONH2)]GGFL-NH2), in test [1], the “selectivity versus the μ opioid receptor” value is recorded as “greater than 10 fold”. For the same molecule, the affinity in test [2], expressed as Ki, was 0.007 µM. Besides, in test [3], the EC50 came out at 0.074 µM. Further, the “selectivity versus the κ opioid receptor” value in test [4] is recorded as “greater than 10 fold”.

These data come from US20050113295A1, “Carboxamide and amino derivatives and methods of their use” (priority 2003, published 2005).
